ChEMBL document CHEMBL1134802, “Biphenyls as surrogates of the steroidal backbone. Part 1: synthesis and estrogen receptor affinity of an original series of polysubstituted biphenyls” (Bioorg Med Chem Lett, 2001)

Biological target: T1, Estrogen receptor (Homo sapiens) (UniProt P03372)
T1 sequence (whole entry): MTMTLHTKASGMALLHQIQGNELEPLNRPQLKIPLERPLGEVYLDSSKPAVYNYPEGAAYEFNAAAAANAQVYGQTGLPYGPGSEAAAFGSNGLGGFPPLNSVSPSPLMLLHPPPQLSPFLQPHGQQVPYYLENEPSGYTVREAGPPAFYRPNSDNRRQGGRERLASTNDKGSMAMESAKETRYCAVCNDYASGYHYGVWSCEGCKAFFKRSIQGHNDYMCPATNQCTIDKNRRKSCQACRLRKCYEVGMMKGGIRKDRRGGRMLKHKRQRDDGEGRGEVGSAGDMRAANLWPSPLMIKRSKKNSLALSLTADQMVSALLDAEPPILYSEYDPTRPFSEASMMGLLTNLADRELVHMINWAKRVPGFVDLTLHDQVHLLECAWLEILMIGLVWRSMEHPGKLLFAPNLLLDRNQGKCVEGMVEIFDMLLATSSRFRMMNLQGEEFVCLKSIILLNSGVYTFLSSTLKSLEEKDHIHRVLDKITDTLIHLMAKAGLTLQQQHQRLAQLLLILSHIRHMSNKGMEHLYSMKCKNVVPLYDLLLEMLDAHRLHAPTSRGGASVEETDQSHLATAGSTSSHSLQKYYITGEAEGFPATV
Test: Binding affinity for human estrogen receptor alpha after 24 hr r at 0C

Activity [%] | SMILES
106 | OCc1cc(Br)c(-c2ccc(O)cc2)c(Br)c1

Biological target: T1, Estrogen receptor (Homo sapiens)
Test: Binding affinity for human estrogen receptor alpha after 3 hr at 0C

Activity [%] | SMILES
24 | O=[N+]([O-])c1cc(CO)cc([N+](=O)[O-])c1-c1ccc(O)cc1
104 | OCc1cc(Cl)c(-c2ccc(O)cc2)c(Cl)c1
33 | OCc1ccc(-c2ccc(O)cc2)c(C(F)(F)F)c1
425 | OCc1cc(Br)c(-c2ccc(O)cc2)c(Br)c1

Biological target: T1, Estrogen receptor (Homo sapiens)
Test: Receptor binding affinity (RBA) to human recombinant estrogen receptor alpha (REH) after 24 hours at 0 degree Centigrade

Activity [%] | SMILES
22 | CC(C)c1cc(CO)cc(Cl)c1-c1ccc(O)cc1
0 | OCc1ccc(-c2c(Cl)c(Cl)c(O)c(Cl)c2Cl)cc1
4.5 | CSc1cc(CO)cc(Br)c1-c1ccc(O)cc1
5 | O=[N+]([O-])c1cc(CO)cc([N+](=O)[O-])c1-c1ccc(O)cc1
0.4 | OCc1ccc(-c2c(Cl)cc(O)cc2Cl)cc1
0.93 | OCc1cc(F)c(-c2ccc(O)cc2)c(F)c1
34 | OCc1cc(Cl)c(-c2ccc(O)cc2)c(Cl)c1
1 | OCc1ccc(-c2ccc(O)cc2)c(-c2ccc(O)cc2)c1
21 | OCc1cc(Cl)c(-c2ccc(O)cc2Cl)c(Cl)c1
41 | OCc1cc(Br)c(-c2ccc(O)cc2)c(I)c1
0.03 | OCc1ccc(-c2ccc(O)cc2Cl)cc1
34 | O=[N+]([O-])c1cc(CO)cc(Br)c1-c1ccc(O)cc1
9.5 | OCc1ccc(-c2ccc(O)cc2)c(C(F)(F)F)c1
0.03 | Nc1cc(CO)cc(Br)c1-c1ccc(O)cc1
1 | OCc1cc(Cl)c(-c2ccc(O)cc2)c(-c2ccc(O)cc2)c1
0.24 | COc1cc(CO)cc(OC)c1-c1ccc(O)cc1
2 | OCc1ccc(-c2ccc(O)cc2)c(Cl)c1
0.06 | Cc1cc(O)cc(C)c1-c1ccc(CO)cc1
0 | OCc1ccc(-c2cc(Br)c(O)c(Br)c2)cc1
5.4 | OCc1c(Cl)c(Cl)c(-c2ccc(O)cc2)c(Cl)c1Cl
50 | OCc1cc(Cl)c(-c2ccc(O)cc2)c(C(F)(F)F)c1
2 | OCc1cc(Br)c(-c2ccc(O)cc2)c(-n2cccc2)c1
0.8 | Cc1cc(CO)cc(C)c1-c1ccc(O)cc1
0 | Cc1cc(-c2ccc(CO)cc2)cc(C)c1O
0.07 | OCc1cc(Cl)c(-c2ccc(O)c(Cc3ccccc3)c2)c(Cl)c1
2.5 | COc1cc(CO)cc(Cl)c1-c1ccc(O)cc1
0.2 | CN(C)C#Cc1cc(CO)cc(Br)c1-c1ccc(O)cc1
0.03 | Nc1cc(CO)cc([N+](=O)[O-])c1-c1ccc(O)cc1
